Tested on: SARS-CoV-2 variants of concern (Alpha, Beta, Delta and Omicron)
Assay: microbe, parasite or virus in culture
Type: cell-based
Conditions: Severe acute respiratory syndrome coronavirus 2, VeroE6/TMPRSS2, read-out: EC50 against SARS-CoV-2 VOC

SMILES: O=C(Nc1ccccc1Cl)c1sc(=S)n2c1[nH]c(=O)c1ccccc12 [F0213]
- EC50: 2.2 to 4.8 µM

Source: publication PMC8983325 (Protein & Cell, 2022)
